Where two headings read alike, the source gives them in different places.
Columns and labels:
[1] = system: TAMH cells overexpressing Bcl-xL (TAMH-Bcl-xL, Tabx2s); test: Cytotoxicity / apoptosis induction in TAMH cells overexpressing Bcl-xL; type: cell-based; conditions: for Neo:Bcl: ratio Neo to Bcl-xL cells
Description: (§1) To examine the sensitivity of cells over-expressing Bcl-xL to various mitochondrial inhibitors and apoptosis inducers, cell lines over-expressing Bcl-xL were prepared and tested according to Hockenberry et al. U.S. Pat. No. 7,241,804, hereby incorporated by reference in its entirety. Competitive binding of compounds with fluorescent antimycin A3, and competitive binding of compounds with BH3 peptide and Bcl-2. Competitive binding of compounds with BH-3 peptide were also measured using Bcl-xL as previously described. Id.
(§2) Cell lines were grown in RPMI 1640 medium (Gibco, Grand Island, N.Y.) supplemented with 5% fetal bovine serum (Hyclone, Logan, Utah). Also shown is the ratio of TAMH cells expressing Bcl-xL to those expressing A142L (WT:142L). The assay measures the potency of various compounds with respect to inducing apoptosis in these cells.
(§3) The compounds described in Example 2 were tested for their ability to inhibit Bcl-2 gain-of-function in TAMH cells, TAMH cells overexpressing […] (TAMH-Bcl-xL), TAMH cells transfected with Neo vector (Neo), TAMH cells over expressing a variant of Bcl-xL (A142L) using the methods of Example 1. 3-6.
(§4) The effects of the compounds described in Example 8 on TAMH cells, TAMH cells overexpressing Bcl-xL (TAMH-Bcl-xL), TAMH cells transfected with Neo vector (Neo), TAMH cells over expressing a variant of Bcl-xL (A142L) is shown in Table 8
(§5) The effects of the compounds described in Example 10 on TAMH cells, TAMH cells overexpressing Bcl-xL (TAMH-Bcl-xL), TAMH cells transfected with Neo vector (Neo), TAMH cells over expressing a variant of Bcl-xL (A142L) is shown in the following Table 10

[2] = system: TAMH cells transfected with Neo vector (Neo); test: Cytotoxicity / apoptosis induction in TAMH cells transfected with Neo vector; type: cell-based
Description: as §1, §2, §3, §4, §5

[3] = system: TAMH cells over expressing a variant of Bcl-xL (A142L); test: Cytotoxicity / apoptosis induction in TAMH cells over expressing Bcl-xL variant A142L; type: cell-based; conditions: Table 4; for EC50: TAMH A142L cells; for WT:142L: ratio of TAMH cells expressing Bcl-xL to those expressing A142L
Description: as §1, §2, §3

[4] = Table 5, TAMH cells overexpressing Bcl-xL (Tabx2s), read-out: 2S EC50
[5] = Table 5, TAMH Neo cells, read-out: Neo EC50
[6] = Table 3, TAMH cells overexpressing Bcl-xL (Tabx2s), read-out: 2S EC50
[7] = Table 3, TAMH Neo cells, read-out: Neo EC50
[8] = Table 4, TAMH-Bcl-xL cells, read-out: Bcl-xL
[9] = Table 4, TAMH Neo cells, read-out: Neo
[10] = Table 10, read-out: IC50 TAMH Bcl-XL
[11] = Table 10, read-out: IC50 TAMH Neo

| Compound | Log P (Log P; Table 3) | EC50 [1, 6] [µM] | EC50 [2, 7] [µM] | Fold Select. (Neo/Bcl-XL) ([1]; Table 10) | IC50 [1, 10] [µM] | IC50 [2, 11] [µM] | further results |
| --- | --- | --- | --- | --- | --- | --- | --- |
| CC(C)(C)c1ccc(Cc2ccc(Oc3ccccc3)cc2O)cc1 [Compound 0155] | – | – | – | – | – | – | Log P (Log P; Table 5): 7.24; EC50 [1, 4]: 1.9 µM; EC50 [2, 5]: 12 µM |
| COc1ccc(Cl)cc1Cc1cc(Cl)cc(Cc2cc(Cl)ccc2O)c1OC [Compound 0088] | – | – | – | – | – | – | Log P (Log P; Table 5): 7.4; EC50 [1, 4]: 0.6 µM; EC50 [2, 5]: 6.1 µM |
| COc1c(Cl)cc(/C=N/Nc2ccccn2)c(O)c1Br [Compound 0355] | 3.820 | 1.6 | 33 | – | – | – | – |
| Oc1c(Cl)cc(Cl)cc1/C=N/Nc1ccccn1 [Compound 0233] | 3.190 | 3.5 | ≥ 50 | – | – | – | – |
| Cc1ccc(OC(=O)C(C)C)c(Cc2cc(C)cc(Cc3cc(C)ccc3OC(=O)C(C)C)c2O)c1 [Compound 0127] | – | – | – | – | – | – | Log P (Log P; Table 5): 8.31; EC50 [1, 4]: 3.2 µM |
| CC(C)(C)c1ccc(Cc2ccc(Cl)cc2Cl)cc1 [Compound 0149] | – | – | – | – | – | – | logP (Log P): 6.28; EC50 ([1]; Mus musculus, Table 6, TAMH cells overexpressing Bcl-xL (Tabx2s), read-out: 2S EC50): 1.1 µM; EC50 ([2]; Mus musculus, Table 6, TAMH Neo cells, read-out: Neo EC50): 9.2 µM |
| CC(C)(C)c1cc(O)c(/C=N/Nc2ccccn2)cc1Br [Compound 0353] | 4.810 | 1.3 | 10 | – | – | – | – |
| COc1cc(O)c(/C=N/Nc2ccccn2)cc1Br [Compound 0351] | 3.03 | 2.6 | ≥ 50 | – | – | – | EC50 [1, 8]: > 25 µM; Neo:Bcl ([1]; Table 4): 1; EC50 [2, 9]: > 25 µM; EC50 [3]: > 25 µM; WT:142L [3]: 1 |
| COc1cc(Br)cc(/C=N/Nc2ccc(C(F)(F)F)cc2)c1O [Compound 0333] | 6.510 | 2.2 | 26.9 | – | – | – | EC50 [1, 8]: 2.7 µM; Neo:Bcl ([1]; Table 4): 9.2; EC50 [2, 9]: > 25 µM; EC50 [3]: 22.2 µM; WT:142L [3]: 8.2 |
| Oc1c(Br)cc(Br)cc1/C=N/Nc1ccccn1 [Compound 0245] | 3.540 | 3.3 | ≥ 50 | – | – | – | – |
| O=C(/N=C/c1cc(Br)cc(Br)c1O)c1ccc(C(F)(F)F)cn1 [Compound 0298] | – | 2.3 | 13 | – | – | – | – |
| O=C(/N=C/c1cc(Br)cc(Br)c1O)c1ccccc1 [Compound 0347] | – | – | – | – | – | – | Log P (Log P; Table 6): 4.250; EC50 ([1]; Table 6, TAMH cells overexpressing Bcl-xL (Tabx2s), read-out: 2S EC50): 0.5 µM; EC50 ([2]; Table 6, TAMH Neo cells, read-out: Neo EC50): 5.8 µM |
| Oc1ccc(Cl)cc1Cc1cc(Cl)cc(Cc2cc(Cl)ccc2O)c1O [Compound 47932] | – | – | – | – | – | – | EC50 ([1]; Table 8, read-out: TAMH Bcl-xL): 0.5 µM; Neo/Bcl-xL ([1]; Table 8, selectivity ratio): 7; Fold Select. (Neo/Bcl-xL) ([1]; Table 13): 7; IC50 ([1]; Table 13, read-out: IC50 TAMH Bcl-xL): 0.5 µM; EC50 ([2]; Table 8, read-out: TANH Neo): 3.5 µM; IC50 ([2]; Table 13, read-out: IC50 TAMH Neo): 3.5 µM |
| Oc1c(Br)cc(Cl)cc1/C=N/Nc1ccc(C(F)(F)F)cn1 [Compound 0275] | 4.980 | 1.4 | 9.9 | – | – | – | – |
| CC(C)(C)c1cc(Br)c(O)c(/C=N/Nc2ccccn2)c1 [Compound 0401] | 4.810 | 1.7 | 40.8 | – | – | – | EC50 [1, 8]: 4.4 µM; Neo:Bcl ([1]; Table 4): 5.7; EC50 [2, 9]: > 25 µM; EC50 [3]: > 25 µM; WT:142L [3]: 2.2 |
| Cc1cccc(Cc2cccc(C)c2O)c1O [Compound 85476] | – | – | – | 2.9 | 18.8 | 55.3 | – |
| Oc1ccc(Br)cc1Sc1cc(Br)ccc1O [Compound 1049] | – | – | – | 2.2 | 1.9 | 4.2 | – |

| Compound | Log P (Log P; Table 3) | EC50 [1, 6] [µM] | EC50 [2, 7] [µM] | Fold Select. (Neo/Bcl-XL) ([1]; Table 10) | IC50 [1, 10] [µM] | IC50 [2, 11] [µM] | further results |
| --- | --- | --- | --- | --- | --- | --- | --- |
| Cc1cc(Cl)cc(Cc2cc(Cl)cc(C)c2O)c1O [Compound 77122] | – | – | – | 3.3 | 2 | 6.6 | – |
| Oc1ccc(Cl)cc1/C=N/Nc1ccc(C(F)(F)F)cn1 [Compound 0231] | 3.560 | 2.1 | ≥ 50 | – | – | – | – |
| [O-][S+](c1cc(Cl)cc(Cl)c1O)c1cc(Cl)cc(Cl)c1O [Compound 523910] | – | – | – | 6.4 | 2.2 | 14.2 | – |
| O=C(c1cc(Br)ccc1O)c1cc(Br)ccc1O [Compound 4631] | – | – | – | 1.7 | 8.5 | 14 | – |
| CN(Cc1cc(C(C)(C)C)cc(Br)c1O)Cc1cc(C(C)(C)C)cc(Br)c1O [Compound 48881] | – | – | – | – | – | – | Neo/Bcl-XL ([1]; Table 19): 4.6; EC50 ([1]; Table 19, read-out: Bcl-XL): 6.1 µM; EC50 ([2]; Table 19, read-out: Neo): 28 µM |
| Cc1c(Cl)c(C)c(Sc2c(C)c(Cl)c(C)c(Br)c2O)c(O)c1Br [Compound 9874] | – | – | – | 2.8 | 0.7 | 2 | – |
| Oc1ccc(Br)cc1/C=N/Nc1ccccn1 [Compound 0241] | 2.740 | 0.2 | ≥ 50 | – | – | – | – |
| CCc1cc(Cc2cc(CC)cc(C(C)(C)C)c2O)c(O)c(C(C)(C)C)c1 [Compound 7782] | – | – | – | 1.7 | 2.1 | 3.5 | – |
| Cc1c(Cl)cc(C(C)(C)C)c(O)c1Cc1c(C)c(Cl)cc(C(C)(C)C)c1O [Compound 5857] | – | – | – | 2.8 | 4.5 | 12.5 | – |
| CN(Cc1cc(Cl)cc(Cl)c1O)Cc1c(O)ccc2ccccc12 [Compound 85479] | – | – | – | – | – | – | Neo/Bcl-XL ([1]; Table 18): 5.8; EC50 ([1]; Table 18, read-out: Bcl-XL): 2.5 µM; EC50 ([2]; Table 18, read-out: Neo): 14.5 µM |
| Cc1cccc(Cc2ccc(Cc3cccc(C)c3)c(O)c2)c1 [Compound 0051] | – | – | – | – | – | – | Log P (Log P; Table 5): 6.18; EC50 [1, 4]: 1.5 µM; EC50 [2, 5]: 15.4 µM |
| Cc1cc(Cc2cc(C)cc(C(C)(C)C)c2O)c(O)c(C(C)(C)C)c1 [Compound 7781] | – | – | – | 2.8 | 1.6 | 4.5 | – |
| COc1ccc(C(=O)N/N=C2\C(=O)c3c(C)cc(C)cc3CC2(C)C)cc1 [Compound 310343] | – | – | – | – | – | – | IC50 ([1]; Mus musculus, TAMH, Table 16, read-out: TAMH Bcl-XL IC50): 25 µM; Fold Selectivity (Neo/Bcl-XL) ([1]; Table 16): >4; IC50 ([2]; Mus musculus, TAMH, Table 16, read-out: TAMH Neo IC50): > 100 µM |
| CN(C)Cc1cc(Cl)cc(Sc2cc(Cl)cc(CN(C)C)c2O)c1O [Compound 62419] | – | – | – | 1.8 | 20 | 36.1 | – |
| CC(=O)Oc1ccc(C)cc1Cc1cc(C)cc(Cc2cc(C)ccc2OC(C)=O)c1OC(C)=O [Compound 0098] | – | – | – | – | – | – | Log P (Log P; Table 5): 7.45; EC50 [1, 4]: 1.6 µM; EC50 [2, 5]: 10.4 µM |
| Oc1ccc(Cl)cc1/C=N/Nc1ccccn1 [Compound 0229] | 2.570 | 2.4 | ≥ 50 | – | – | – | – |
